US11058654B2, “Compositions and methods for the treatment of hemoglobinopathies and thalassemias” (AXCELLA HEALTH INC., priority 2018, dated 2021)

Tested on: RBCs of healthy whole blood
Assay: RBC deformability (LORRCA elongation index), ex vivo TBHP oxidation of healthy whole blood
Assay type: cell-based, human
Conditions: for EI over vehicle control, ½ EImax and EImax: healthy donor 2, single amino acid treatments, in words
Description: Whole blood from healthy African American and/or Hispanic donors was obtained from Research Blood Components, LLC based on the following donor selection criteria: Adult age (between 18 and 50 years), normal BMI (<30), and absence of other confounding clinical conditions. Whole blood from SCD donors were obtained from BioIVT based on the following donor selection criteria: Patients with genotypes HbSS, HbSC, HbS/β^0 and at least 1-2 months gap since last blood transfusion. Whole blood was shipped on ice on the same day as blood draw. Upon receipt, the blood sample was aliquoted and stored in the refrigerator until used for studies.
RBC deformability measurements were conducted with the Laser Optical Rotational Red Cell Analyzer (LORRCA) from RR Mechatronics in a temperature-controlled environment (37° C.). Briefly, an even layer of RBCs suspended in polyvinylpyrrolidone (PVP) is subjected to shear stress gradient (0.3 to 30 Pa) through two concentric cylinders and the resulting changes in RBC shape or deformability are measured by a laser beam diffraction pattern. The captured images of RBC shape in response to increasing shear stress are then analyzed by the LORRCA program to calculate Elongation Index (EI).
Healthy RBCs have higher deformability≥0.5 EI and SCD RBCs have lower deformability or EI values as studied by LORRCA ektacytometry in the field. […] The induced hemolysis model in this disclosure involves use of tert-butyl hydroperoxide (TBHP) to lower EI of RBCs.
The ex vivo hemolysis study disclosed here involves overnight treatment of whole blood with vehicle as a control and specific amino acids followed by rapid oxidation (5 min) with TBHP. Method for oxidation of whole blood with tert-butyl hydroperoxide has been used in prior literature (Diederich L, et al, Front Physiol. 2018 May 11; 9:332). RBC deformability or shape changes are then measured with LORRCA ektacytometry.
Whole blood aliquots stored in the fridge were brought up to room temperature while gently shaking on a rocker at low speed for an hour to ensure gradual and uniform suspension of red blood cells prior to deformability measurements. Vehicle control used in the study was 1× Dulbecco's […]) and amino acids disclosed herein were added (at either final […] or 2.5 mM concentration as indicated) to corresponding vehicle and amino acid treatment conditions. The samples were then incubated overnight at 37° C. Next day, 25 μL of whole blood was taken from each treatment condition and added to 5 mL Elon ISO viscous solution from RR Mechatronics. The sample was inverted 15-20 times to ensure proper mixing of the treated RBCs with the Elon ISO solution followed by loading the sample on LORRCA and capturing RBC deformability or shape measurements over the applied shear gradient. The remaining whole blood treatments were returned to incubator (37° C.) until deformability measurements were completed for all treatments. To the remaining whole blood treatment samples, TBHP solution (5.0-6.0 M in Decane, Sigma) was added at 2.5 mM final concentration from a 100 mM freshly prepared stock and incubated for further 5 min at 37° C. 25 μL of this TBHP-treated sample was immediately removed at the end of the 5 min incubation and added to the Elon ISO solution for RBC deformability measurement after oxidation. Included in the Tables 13-15 are EI measurements at ½ EImax shear stress 1.69 Pa and EImax shear stress 30 Pa from these studies and FIG. 1 captures EI measurements for all shear stress points for the indicated treatment conditions.

| Structure (SMILES) | EI over vehicle control, ½ EImax and EImax | effectiveness among all treatment groups (EI and fold change relative to vehicle) (healthy donor 2, in words) |
| --- | --- | --- |
| CC(=O)N[C@@H](CS)C(=O)O [N-Acetyl Cysteine, N-acetylcysteine] | higher than the vehicle |  |
| NC(=O)CC[C@H](N)C(=O)O [Glutamine] | higher than the vehicle | least effective |
| N=C(N)NCCC[C@H](N)C(=O)O [Arginine] | higher than the vehicle |  |
